Measurements: ChEMBL document CHEMBL1201862, “PubChem BioAssay data set” (2004)
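Where inhibition never reached the appropriate level, the endpoint shown equals the highest concentration tested. Otherwise, values were interpolated linearly from a five-concentration, 48-hour dose response in 96-well plates. Here, GI50 denotes the concentration required for 50% inhibition of growth.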 The source made the active and inactive calls. No stated cut-off is given here; in the data, active = GI50 up to about 1.1 µM and inactive = higher.

How the values were obtained:
Assay in all cases: growth of human tumour cells (NCI), 48 h
ACHN = system: ACHN
LXFL 529 = system: LXFL 529
RXF 631 = system: RXF 631
KM12 = system: KM12
Malme-3M = system: Malme-3M
IGROV-1 = system: IGROV-1
SNB-19 = system: SNB-19
HOP-92 = system: HOP-92
SK-OV-3 = system: SK-OV-3
786-0 = system: 786-0
OVCAR-5 = system: OVCAR-5
UO-31 = system: UO-31
SF-268 = system: SF-268
NCI-H460 = system: NCI-H460
HL-60 = system: HL-60
DLD-1 = system: DLD-1
SF-539 = system: SF-539
OVCAR-3 = system: OVCAR-3
SK-MEL-2 = system: SK-MEL-2
HCC 2998 = system: HCC 2998
HOP-62 = system: HOP-62
DMS-114 = system: DMS-114
HT-29 = system: HT-29
M14 = system: M14
UACC-62 = system: UACC-62
XF498 = system: XF498
NCI-H522 = system: NCI-H522
SK-MEL-28 = system: SK-MEL-28
UACC-257 = system: UACC-257
CAKI-1 = system: CAKI-1
HCT-116 = system: HCT-116
SK-MEL-5 = system: SK-MEL-5
SR = system: SR
NCI-H23 = system: NCI-H23
K562 = system: K562
KM-20L2 = system: KM-20L2
SN12C = system: SN12C
LOX IMVI = system: LOX IMVI
RPMI-8226 = system: RPMI-8226
DMS-273 = system: DMS-273
A549 = system: A549
SF-295 = system: SF-295
M19-MEL = system: M19-MEL
SNB-75 = system: SNB-75
MOLT-4 = system: MOLT-4
COLO 205 = system: COLO 205
U-251 = system: U-251
TK-10 = system: TK-10
SW-620 = system: SW-620
SNB-78 = system: SNB-78
CCRF-CEM = system: CCRF-CEM
OVCAR-8 = system: OVCAR-8
NCI-H226 = system: NCI-H226
HCT-15 = system: HCT-15
OVCAR-4 = system: OVCAR-4
HOP-18 = system: HOP-18
EKVX = system: EKVX
RXF 393 = system: RXF 393

CCCCC/C=C1\CCC(CN(C)C)C1=O (stereo unspecified)
GI50 (ACHN): 13.9 µM (inactive)
GI50 (LXFL 529): 1.82 µM (inactive)
GI50 (RXF 631): 14.7 µM (inactive)
GI50 (KM12): 4.8 µM (inactive)
GI50 (Malme-3M): 14.6 µM (inactive)
GI50 (IGROV-1): 17.5 µM (inactive)
GI50 (SNB-19): 19.5 µM (inactive)
GI50 (HOP-92): 11.5 µM (inactive)
GI50 (SK-OV-3): 15 µM (inactive)
GI50 (786-0): 2.71 µM (inactive)
GI50 (OVCAR-5): 18.6 µM (inactive)
GI50 (UO-31): 17 µM (inactive)
GI50 (SF-268): 19.1 µM (inactive)
GI50 (NCI-H460): 31.5 µM (inactive)
GI50 (HL-60): 6.97 µM (inactive)
GI50 (DLD-1): 3.73 µM (inactive)
GI50 (SF-539): 10.9 µM (inactive)
GI50 (OVCAR-3): 15.6 µM (inactive)
GI50 (SK-MEL-2): 19.9 µM (inactive)
GI50 (HCC 2998): 16.9 µM (inactive)
GI50 (HOP-62): 17.7 µM (inactive)
GI50 (DMS-114): 13.5 µM (inactive)
GI50 (HT-29): 28.2 µM (inactive)
GI50 (M14): 14.1 µM (inactive)
GI50 (UACC-62): 15.9 µM (inactive)
GI50 (XF498): 14.9 µM (inactive)
GI50 (NCI-H522): 4.06 µM (inactive)
GI50 (SK-MEL-28): 9.89 µM (inactive)
GI50 (UACC-257): 16.3 µM (inactive)
GI50 (CAKI-1): 7.05 µM (inactive)
GI50 (HCT-116): 11.8 µM (inactive)
GI50 (SK-MEL-5): 18.2 µM (inactive)
GI50 (SR): 3.79 µM (inactive)
GI50 (NCI-H23): 17.7 µM (inactive)
GI50 (K562): 1.94 µM (inactive)
GI50 (KM-20L2): 15.1 µM (inactive)
GI50 (SN12C): 14.7 µM (inactive)
GI50 (LOX IMVI): 6.79 µM (inactive)
GI50 (RPMI-8226): 0.386 µM (active)
GI50 (DMS-273): 13.6 µM (inactive)
GI50 (A549): 34.1 µM (inactive)
GI50 (SF-295): 20 µM (inactive)
GI50 (M19-MEL): 10.4 µM (inactive)
GI50 (SNB-75): 16.2 µM (inactive)
GI50 (MOLT-4): 1.95 µM (inactive)
GI50 (COLO 205): 8.99 µM (inactive)
GI50 (U-251): 8.2 µM (inactive)
GI50 (TK-10): > 23.4 µM (inactive)
GI50 (SW-620): 3.76 µM (inactive)
GI50 (SNB-78): 19.7 µM (inactive)
GI50 (CCRF-CEM): 1.56 µM (inactive)
GI50 (OVCAR-8): > 21.5 µM (inactive)
GI50 (NCI-H226): 15.5 µM (inactive)
GI50 (HCT-15): 3.17 µM
GI50 (OVCAR-4): 20.1 µM (inactive)
GI50 (HOP-18): 24 µM (inactive)
GI50 (EKVX): 26 µM (inactive)

CC(=O)Oc1c(Br)ccc2cc(C(Br)Br)c(C(=O)c3ccccc3)nc12
GI50 (ACHN): 22.1 µM (inactive)
GI50 (LXFL 529): 30.6 µM (inactive)
GI50 (RXF 631): 23.5 µM (inactive)
GI50 (KM12): 19.6 µM (inactive)
GI50 (Malme-3M): 24.9 µM (inactive)
GI50 (IGROV-1): 29.1 µM (inactive)
GI50 (SNB-19): 19.9 µM (inactive)
GI50 (786-0): 22.6 µM (inactive)
GI50 (OVCAR-5): 17.3 µM (inactive)
GI50 (UO-31): 19.2 µM (inactive)
GI50 (SF-268): 25.7 µM (inactive)
GI50 (NCI-H460): 19.9 µM (inactive)
GI50 (DLD-1): 24 µM (inactive)
GI50 (SF-539): 18.6 µM (inactive)
GI50 (OVCAR-3): > 10 µM (inactive)
GI50 (SK-MEL-2): 20.7 µM (inactive)
GI50 (HCC 2998): 17.9 µM (inactive)
GI50 (HOP-62): 19.1 µM (inactive)
GI50 (DMS-114): 24.8 µM (inactive)
GI50 (HT-29): 19.2 µM (inactive)
GI50 (M14): 21.2 µM (inactive)
GI50 (UACC-62): 20 µM (inactive)
GI50 (XF498): 14.8 µM (inactive)
GI50 (NCI-H522): 4.21 µM (inactive)
GI50 (SK-MEL-28): 15.9 µM (inactive)
GI50 (UACC-257): 1.88 µM (inactive)
GI50 (CAKI-1): 3.78 µM (inactive)
GI50 (HCT-116): 21.8 µM (inactive)
GI50 (SK-MEL-5): 19.1 µM (inactive)
GI50 (SR): 28.1 µM (inactive)
GI50 (NCI-H23): 20 µM (inactive)
GI50 (K562): 20.2 µM (inactive)
GI50 (KM-20L2): 19.4 µM (inactive)
GI50 (SN12C): 20 µM (inactive)
GI50 (LOX IMVI): 23.9 µM (inactive)
GI50 (RXF 393): 17.9 µM (inactive)
GI50 (RPMI-8226): > 10 µM (inactive)
GI50 (DMS-273): 20.6 µM (inactive)
GI50 (A549): 24.3 µM (inactive)
GI50 (SF-295): 18.7 µM (inactive)
GI50 (M19-MEL): 22.3 µM (inactive)
GI50 (SNB-75): 20.5 µM (inactive)
GI50 (MOLT-4): 20.7 µM (inactive)
GI50 (COLO 205): 24.4 µM (inactive)
GI50 (U-251): 19.2 µM (inactive)
GI50 (TK-10): 17.7 µM (inactive)
GI50 (SW-620): 22.4 µM (inactive)
GI50 (SNB-78): 27.7 µM (inactive)
GI50 (OVCAR-8): 23.6 µM (inactive)
GI50 (NCI-H226): 19.7 µM (inactive)
GI50 (HCT-15): 22.8 µM
GI50 (OVCAR-4): 5.01 µM (inactive)
GI50 (HOP-18): 17.2 µM (inactive)
GI50 (EKVX): 22.5 µM (inactive)
